EC50 data for 31 molecules are collected here from patent US7163946B2 (Ligand Pharmaceuticals Incorporated, priority 2002, dated 2007).

Each structure is given as a SMILES string.

The first test addresses T1, hPR (Homo sapiens, UniProt P06401).
T1 sequence (P06401 1-933): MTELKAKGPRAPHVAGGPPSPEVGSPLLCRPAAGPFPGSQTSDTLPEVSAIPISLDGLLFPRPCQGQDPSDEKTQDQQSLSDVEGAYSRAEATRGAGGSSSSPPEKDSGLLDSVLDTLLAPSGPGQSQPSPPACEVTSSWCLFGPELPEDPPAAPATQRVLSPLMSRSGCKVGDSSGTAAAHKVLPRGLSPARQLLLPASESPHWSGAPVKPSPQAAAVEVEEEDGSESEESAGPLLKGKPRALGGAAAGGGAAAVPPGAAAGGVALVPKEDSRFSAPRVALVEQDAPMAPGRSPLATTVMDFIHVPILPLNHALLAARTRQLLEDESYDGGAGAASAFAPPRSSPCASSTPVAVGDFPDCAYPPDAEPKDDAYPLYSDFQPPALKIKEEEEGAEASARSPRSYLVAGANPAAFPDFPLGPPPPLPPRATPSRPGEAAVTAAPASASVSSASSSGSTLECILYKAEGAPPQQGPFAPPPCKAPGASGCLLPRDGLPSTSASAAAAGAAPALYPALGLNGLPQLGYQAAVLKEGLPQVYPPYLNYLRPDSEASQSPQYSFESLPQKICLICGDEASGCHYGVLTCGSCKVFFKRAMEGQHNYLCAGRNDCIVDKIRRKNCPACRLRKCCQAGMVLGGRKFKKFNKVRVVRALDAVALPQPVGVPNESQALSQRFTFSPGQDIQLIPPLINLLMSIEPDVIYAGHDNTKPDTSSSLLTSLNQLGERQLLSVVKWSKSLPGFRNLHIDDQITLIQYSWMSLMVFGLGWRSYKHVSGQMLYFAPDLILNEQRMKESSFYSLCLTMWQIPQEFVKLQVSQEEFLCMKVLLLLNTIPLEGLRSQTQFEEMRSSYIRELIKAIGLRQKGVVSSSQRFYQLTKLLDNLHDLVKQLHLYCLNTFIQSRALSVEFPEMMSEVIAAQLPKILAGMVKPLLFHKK
Description: hPR cotransfection assay in CV-1 cells, agonist mode. It is filed as cell-based. Particulars: Tables 3 and 4, values without footnote; read-out: hPR agonist potencies (EC50 in nM) in the cotransfection assay.
Description: Antagonist efficacy was determined as a function (%) of maximal inhibition of a reference agonist at EC50 concentration. All the cotransfection experiments were carried out in 96-well plates by automation (Beckman Biomomek automated workstation).
For the molecule `CC1=CC(C)(C)Nc2ccc3c(c21)C(c1ccc2c(c1)OCO2)Oc1c(F)cc(F)cc1-3` (racemic) [Compound 35, (±)-7,9-difluoro-5-(1,3-benzodioxol-5-yl)-1,2-dihydro-2,2,4-trimethyl-5H-chromeno[3,4-f]quinoline], the EC50 is 3.85 nM. With `CC1=CC(C)(C)Nc2ccc3c(c21)C(c1ccc(Br)cc1)Oc1c(F)cc(F)cc1-3` (racemic) [Compound 36, (±)-7,9-difluoro-5-(4-bromophenyl)-1,2-dihydro-2,2,4-trimethyl-5H-chromeno[3,4-f]quinoline], the EC50 came out at 4.96 nM. `CC1=CC(C)(C)Nc2ccc3c(c21)C(c1cccc(F)c1)Oc1c(F)cc(F)cc1-3` (racemic) [Compound 40, (±)-7,9-difluoro-5-(3-fluorophenyl)-1,2-dihydro-2,2,4-trimethyl-5H-chromeno[3,4-f]quinoline]: the EC50 came out at 6.66 nM.

For the molecule `CC1=CC(C)(C)Nc2ccc3c(c21)C(c1cccc(Br)c1)Oc1c(F)cc(F)cc1-3` (racemic) [Compound 42, (±)-7,9-difluoro-5-(3-bromophenyl)-1,2-dihydro-2,2,4-trimethyl-5H-chromeno[3,4-f]quinoline], the EC50 was found to be 3.65 nM.

Regarding `CC1=CC(C)(C)Nc2ccc3c(c21)C(c1ccc(Cl)cc1)Oc1c(F)cc(F)cc1-3` (racemic) [Compound 43, (±)-7,9-difluoro-5-(4-chlorophenyl)-1,2-dihydro-2,2,4-trimethyl-5H-chromeno[3,4-f]quinoline], the concentration giving a half-maximal response (EC50) worked out at 5.1 nM. Take `CCC1Oc2c(F)cc(F)cc2-c2ccc3c(c21)C(C)=CC(C)(C)N3` (racemic) [Compound 46, (±)-7,9-difluoro-5-ethyl-1,2-dihydro-2,2,4-trimethyl-5H-chromeno[3,4-f]quinoline]: the EC50 worked out at 6.93 nM. On the same count and under the same terms, to `CCCCC1Oc2c(F)cc(F)cc2-c2ccc3c(c21)C(C)=CC(C)(C)N3` (racemic) [Compound 52, (±)-7,9-difluoro-5-butyl-1,2-dihydro-2,2,4-trimethyl-5H-chromeno[3,4-f]quinoline] belongs 15 nM; to `C=CCC1Oc2c(F)cc(F)cc2-c2ccc3c(c21)C(C)=CC(C)(C)N3` (racemic) [Compound 55, (±)-7,9-difluoro-5-allyl-1,2-dihydro-2,2,4-trimethyl-5H-chromeno[3,4-f]quinoline], 3.6 nM. As for `CC1=CC(C)(C)Nc2ccc3c(c21)C(c1cccc(C(F)(F)F)c1)Oc1c(F)cc(F)cc1-3` (racemic) [Compound 56, (±)-7,9-difluoro-5-[3-(trifluoromethyl)phenyl]-1,2-dihydro-2,2,4-trimethyl-5H-chromeno[3,4-f]quinoline], the half-maximal effective concentration (EC50) is 1.6 nM. Same read-out and setting: in the case of `CC1=CC(C)(C)Nc2ccc3c(c21)/C(=C/c1ccccc1Cl)Oc1c(F)cc(F)cc1-3` [Compound 13, 7,9-difluoro-5(Z)-(2-chlorobenzylidene)-1,2-dihydro-2,2,4-trimethyl-5H-chromeno[3,4-f]quinoline] it was 1.92 nM; in that of `CC1=CC(C)(C)Nc2ccc3c(c21)/C(=C/c1ccc(F)cc1)Oc1c(F)cc(F)cc1-3` [Compound 16, 7,9-difluoro-5(Z)-(4-fluorobenzylidene)-1,2-dihydro-2,2,4-trimethyl-5H-chromeno[3,4-f]quinoline], 3.7 nM; in that of `CC1=CC(C)(C)Nc2ccc3c(c21)/C(=C/c1cccc(F)c1C)Oc1c(F)cc(F)cc1-3` [Compound 21, 7,9-difluoro-5(Z)-(2-methyl-3-fluorobenzylidene)-1,2-dihydro-2,2,4-trimethyl-5H-chromeno[3,4-f]quinoline], 8.2 nM.

Turning to `CC1=CC(C)(C)Nc2ccc3c(c21)/C(=C/c1ccccc1C)Oc1c(F)cc(F)cc1-3` [Compound 81, 7,9-difluoro-5(Z)-(2-methylbenzylidene)-1,2-dihydro-2,2,4-trimethyl-5H-chromeno[3,4-f]quinoline], the half-maximal effective concentration (EC50) turned out to be 1.66 nM. Take `CC1=CC(C)(C)Nc2ccc3c(c21)C(c1cccc(C(F)(F)F)c1)Oc1ccc(Cl)cc1-3` (stereo not shown) [Formula I X=9-Cl 3-CF3-Ph, reference compound]: the half-maximal effective concentration (EC50) was 7.4 nM. The same measure, in the same setting: in the case of `CC1=CC(C)(C)Nc2ccc3c(c21)C(c1ccc(Cl)c(C)c1)Oc1ccc(Cl)cc1-3` (stereo not shown) [Formula I X=9-Cl 4-Cl-3-Me-Ph, reference compound] it was 9.4 nM; in that of `C=CCC1Oc2ccc(F)cc2-c2ccc3c(c21)C(C)=CC(C)(C)N3` (stereo not shown) [Formula I X=9-F Allyl, reference compound], 7.5 nM.

As to `CCC1Oc2ccc(F)cc2-c2ccc3c(c21)C(C)=CC(C)(C)N3` (stereo not shown) [Formula I X=9-F Et, reference compound], the EC50 turned out to be 9 nM. Still for that read-out and setting: in the case of `CC1=CC(C)(C)Nc2ccc3c(c21)C(c1cccc(Cl)c1)Oc1ccc(C)cc1-3` (stereo not shown) [Formula I X=9-Me 3-Cl-Ph, reference compound] it was 4.85 nM; in that of `CC1=CC(C)(C)Nc2ccc3c(c21)C(c1cccc(C)c1)Oc1ccc(C)cc1-3` (stereo not shown) [Formula I X=9-Me 3-Me-Ph, reference compound], 44 nM. Take `COc1ccc2c(c1)-c1ccc3c(c1C(c1cccc(C)c1)O2)C(C)=CC(C)(C)N3` (stereo not shown) [Formula I X=9-OMe 3-Me-Ph, reference compound]: the EC50 came out at 11 nM. With `CC1=CC(C)(C)Nc2ccc3c(c21)C(c1cccc(C)c1)Oc1ccccc1-3` (stereo not shown) [Formula I X=H 3-Me-Ph, reference compound], the EC50 came to 145 nM. With `CC1=CC(C)(C)Nc2ccc3c(c21)C(c1ccc2c(c1)OCO2)Oc1ccccc1-3` (stereo not shown) [Formula I X=H Benzodioxol-5-yl, reference compound], the EC50 was 48 nM.

As to `CC1=CC(C)(C)Nc2ccc3c(c21)/C(=C/c1ccccc1)Oc1c(Cl)cccc1-3` [Formula II X=7-Cl Phenyl, reference compound], the half-maximal effective concentration (EC50) was determined as 6.2 nM. Consider `CC1=CC(C)(C)Nc2ccc3c(c21)/C(=C/c1cc(F)ccc1C)Oc1cc(F)c(F)cc1-3` [Formula II X=8,9-diF 2-Me-5-F-Ph, reference compound], for which the EC50 was 3.95 nM. Regarding `CC1=CC(C)(C)Nc2ccc3c(c21)/C(=C/c1ccccc1C)Oc1cc(F)c(F)cc1-3` [Formula II X=8,9-diF 2-Me-Ph, reference compound], the EC50 came out at 13 nM. Turning to `CC1=CC(C)(C)Nc2ccc3c(c21)/C(=C/c1ccccc1C)Oc1cc(F)ccc1-3` [Formula II X=8-F 2-Me-Ph, reference compound], the half-maximal effective concentration (EC50) is 13 nM. In the case of `CC1=CC(C)(C)Nc2ccc3c(c21)/C(=C/c1cccc(F)c1)Oc1cc(F)ccc1-3` [Formula II X=8-F 3-F-Ph, reference compound], the EC50 amounted to 109 nM. With `CC1=CC(C)(C)Nc2ccc3c(c21)/C(=C/c1ccccc1)Oc1cc(F)ccc1-3` [Formula II X=8-F Phenyl, reference compound], the EC50 is 187 nM. Regarding `CC1=CC(C)(C)Nc2ccc3c(c21)/C(=C/c1cc(F)ccc1F)Oc1cc(O)ccc1-3` [Formula II X=8-OH 2,5-diF-Ph, reference compound], the EC50 amounted to 10 nM.

Staying with this test, now noted: hPR agonist potencies (EC50 in nM) in the cotransfection assay, Tables 3 and 4, values without footnote.
`CC1=CC(C)(C)Nc2ccc3c(c21)C(C)Oc1c(F)cc(F)cc1-3` (racemic) [Compound 44, (±)-7,9-difluoro-1,2-dihydro-2,2,4,5-tetramethyl-5H-chromeno[3,4-f]quinoline]: it took 1.4 nM to reach a half-maximal effect (EC50). The molecule `CC1=CC(C)(C)Nc2ccc3c(c21)C(c1ccc(Cl)c(C)c1)Oc1ccc(C)cc1-3` (stereo not shown) [Formula I X=9-Me 4-Cl-3-Me-Ph, reference compound] came in with a concentration for a half-maximal effect (EC50) of 7.45 nM.

Usually EC50 stands for the concentration giving half of the maximal effect.
